Values after ≈ are worked out from the molar mass of the structure shown.
What was measured:
Format in all cases: cell-based
S. aureus UC-76 SA-1 = assay: in vitro antibacterial activity (MIC), S. aureus; conditions: Staphylococcus aureus, UC76; strain UC-76 SA-1; MIC = lowest concentration preventing macroscopically visible growth; read-out: in vitro antibacterial activity MIC5 S. aureus UC-76 SA-1
Text: (§1) The in vitro antibacterial activity of the compounds of the present invention may be assessed by following procedures recommended in (1) National Committee for Clinical Laboratory Standards (January 2003), Methods for dilution antimicrobial tests for bacteria that grow aerobically, Approved Standard (6th ed), M7-A6, NCCLS, Wayne, Pa.; (2) National Committee for Clinical Laboratory Standards (March 2001), Methods for antimicrobial susceptibility testing of anaerobic bacteria, Approved Standard (5th ed), M11-A4, NCCLS, Wayne, Pa.; (3) National Committee for Clinical Laboratory Standards (Jan. 2003), MIC testing supplemental tables, M100-S13 (for use with M7-A6), NCCLS, Wayne, Pa.; and (4) Murray P R, Baron E J, Jorgensen J H, et al. Manual of Clinical Microbiology (8th ed) Washington, D.C.: American Society for Microbiology Press, 2003. The antibacterial activity can be presented in the form of MIC value. The MIC value is the lowest concentration of drug, which prevented macroscopically visible growth under the conditions of the test.

S. pneumoniae SV1 SP-3 = assay: in vitro antibacterial activity (MIC), S. pneumoniae; conditions: Streptococcus pneumoniae, SV1SP3; strain SV1 SP-3; MIC = lowest concentration preventing macroscopically visible growth; read-out: in vitro antibacterial activity MIC5 S. pneumoniae SV1 SP-3
Text: as §1

E. faecalis MGH-2 EF 1-1 = assay: in vitro antibacterial activity (MIC), E. faecalis; conditions: Enterococcus faecalis, MGH2EF11; strain MGH-2 EF 1-1; MIC = lowest concentration preventing macroscopically visible growth; read-out: in vitro antibacterial activity MIC5 E. faecalis MGH-2 EF 1-1
Text: as §1

Row | SMILES | MIC (S. aureus UC-76 SA-1) [µg/mL] | MIC (S. pneumoniae SV1 SP-3) [µg/mL] | MIC (E. faecalis MGH-2 EF 1-1) [µg/mL]
1 | Cc1noc2cc(N3C[C@H](Cn4ccnn4)OC3=O)ccc12 [Example 4, (R)-3-(3-methyl-benzo[d]isoxazol-6-yl)-5-[1,2,3]triazol-1-ylmethyl-oxazolidin-2-one] | 4 (≈ 13.4 µM) | 2 (≈ 6.68 µM) | 4 (≈ 13.4 µM)
2 | COC(=O)NC[C@H]1CN(c2ccc3c(C)noc3c2)C(=O)O1 [Example 3, (S)-[3-(3-methyl-benzo[d]isoxazol-6-yl)-2-oxo-oxazolidin-5-ylmethyl]-carbamic acid methyl ester] | 4 (≈ 13.1 µM) | 2 (≈ 6.55 µM) | 4 (≈ 13.1 µM)
3 | CNC(=O)[C@H]1CN(c2ccc3c(C)noc3c2)C(=O)O1 [Example 7, (R)-3-(3-methyl-benzo[d]isoxazol-6-yl)-2-oxo-oxazolidine-5-carboxylic acid methylamide] | 4 (≈ 14.5 µM) | 4 (≈ 14.5 µM) | 4 (≈ 14.5 µM)
4 | CCONC(=O)[C@H]1CN(c2ccc3c(C)noc3c2)C(=O)O1 [Example 9, (R)-3-(3-methyl-benzo[d]isoxazol-6-yl)-2-oxo-oxazolidine-5-carboxylic acid ethoxy-amide] | 4 (≈ 13.1 µM) | 8 (≈ 26.2 µM) | 4 (≈ 13.1 µM)

More lines, in order of falling MIC (S. aureus UC-76 SA-1), values ahead:

Row | MIC (S. aureus UC-76 SA-1) [µg/mL] | MIC (S. pneumoniae SV1 SP-3) [µg/mL] | MIC (E. faecalis MGH-2 EF 1-1) [µg/mL] | SMILES
5 | 4 (≈ 15.3 µM) | 4 (≈ 15.3 µM) | 8 (≈ 30.6 µM) | Cc1noc2cc(N3C[C@H](C(N)=O)OC3=O)ccc12 [Example 6, (R)-3-(3-methyl-benzo[d]isoxazol-6-yl)-2-oxo-oxazolidine-5-carboxylic acid amide]
6 | 4 (≈ 13.7 µM) | 8 (≈ 27.5 µM) | 4 (≈ 13.7 µM) | CONC(=O)[C@H]1CN(c2ccc3c(C)noc3c2)C(=O)O1 [Example 8, (R)-3-(3-methyl-benzo[d]isoxazol-6-yl)-2-oxo-oxazolidine-5-carboxylic acid methoxy-amide]
7 | 2 (≈ 6.59 µM) | 2 (≈ 6.59 µM) | 4 (≈ 13.2 µM) | CCC(=O)NC[C@H]1CN(c2ccc3c(C)noc3c2)C(=O)O1 [Example 2, (S)—N-[3-(3-methyl-benzo[d]isoxazol-6-yl)-2-oxo-oxazolidin-5-ylmethyl]-propionamide]
8 | 2 (≈ 6.91 µM) | 1 (≈ 3.46 µM) | 2 (≈ 6.91 µM) | CC(=O)NC[C@H]1CN(c2ccc3c(C)noc3c2)C(=O)O1 [Example 1, (S)—N-[3-(3-methyl-benzo[d]isoxazol-6-yl)-2-oxo-oxazolidin-5-ylmethyl]-acetamide]

— patent US20090221655A1, “ANTIBACTERIAL AGENTS” (Pitzer, Inc., priority 2006, published 2009)
